System: LS174T cells
Assay: Cell proliferation inhibition assay (5 days, cell counting)
Assay type: cell-based
Conditions: for inhibition at 0.062 µM / inhibition at 0.125 µM / inhibition at 0.25 µM / inhibition at 0.5 µM / IC50 / inhibition at 3 µM / inhibition at 1 µM / inhibition at 0.3 µM: Homo sapiens, LS174T; for inhibition at 0.062 µM / inhibition at 0.125 µM / inhibition at 0.25 µM / inhibition at 0.5 µM: 120 h; for inhibition at 0.062 µM: 62 nM; for inhibition at 0.125 µM: 125 nM; for IC50: dose response studies, read-out: IC50 values in cell proliferation assays; for inhibition at 3 µM: read-out: Inhibition % on LS174T cells Proliferation 3 uM Inhib. %; for inhibition at 1 µM: read-out: Inhibition % on LS174T cells Proliferation 1 uM Inhib. %; for inhibition at 0.3 µM: read-out: Inhibition % on LS174T cells Proliferation 0.3 uM Inhib. %
Experimental: Cell proliferation inhibition assays were done following a previous report (32). Cancer cells were seeded into 24-well plates at a density of 20,000 cells per well in 1 mL of culture medium and were cultured overnight at 37° C. Compounds and the vehicle control (DMSO) were added to the cells. After 5 days, the medium was removed, and 100 μL of trypsin was added. The cells were resuspended in phosphate-buffered saline (PBS) and were counted by Vi-CELL XR 2.03 (Beckman Coulter, Inc. USA). The ratio R of the number of viable cells in the compound treatment group to the number of viable cells in DMSO treatment group was taken as relative growth, and the percentage growth inhibition was calculated as (1−R)*100.

3-(1-Methyl-1H-indol-3-yl)-7-(4-methylpiperazin-1-yl)quinolin-2-amine [ISQ-3]
Inhibition % on LS174T cells Proliferation 250 nM (250 nM, 5 days): 27 ± 14%
Inhibition % on LS174T cells Proliferation 0.3 uM Inhib. % (0.3 uM): 73.9%
Inhibition % on LS174T cells Proliferation 500 nM (500 nM, 5 days): 89 ± 2.1%
Inhibition % on LS174T cells Proliferation 1 uM Inhib. % (1 uM): 95.5%
Inhibition % on LS174T cells Proliferation 3 uM Inhib. % (3 uM): 99.7%

Cn1cc(-c2cc3ccc(N4CCCCC4)cc3nc2N)c2ccccc21 [ISQ-2, 3-(1-Methyl-1H-indol-3-yl)-7-(piperidin-1-yl)quinolin-2-amine]
inhibition at 0.062 µM (5 days): 8.2 ± 5.6%
inhibition at 0.125 µM (5 days): 28 ± 4.6%
inhibition at 0.25 µM (250 nM, 5 days): 55 ± 0.5%
inhibition at 0.5 µM (500 nM, 5 days): 97 ± 0.4%

CC(C)C1CCN(c2ccc3cc(-c4cn(C)c5ccccc45)c(N)nc3c2)CC1 [ISQ-4, 7-(4-Isopropylpiperidin-1-yl)-3-(1-methyl-1H-indol-3-yl)quinolin-2-amine]
inhibition at 0.5 µM (500 nM, 5 days): 36 ± 0.9%

Cn1cc(-c2cc3ccc(N4CCC(Cc5ccccc5)CC4)cc3nc2N)c2ccccc21 [ISQ-5, 7-(4-Benzylpiperidin-1-yl)-3-(1-methyl-1H-indol-3-yl)quinolin-2-amine]
inhibition at 0.5 µM (500 nM, 5 days): 21 ± 3.9%

Cn1cc(-c2cc3ccc(N4CCC(c5ccccc5)CC4)cc3nc2N)c2ccccc21 [ISQ-6, 3-(1-Methyl-1H-indol-3-yl)-7-(4-phenylpiperidin-1-yl)quinolin-2-amine]
inhibition at 0.5 µM (500 nM, 5 days): 56 ± 13.1%

Cn1cc(-c2cc3ccc(N4CCC(CO)CC4)cc3nc2N)c2ccccc21 [ISQ-8, (1-(2-Amino-3-(1-methyl-1H-indol-3-yl)quinolin-7-yl)piperidin-4-yl)methanol]
percentage inhibition of LS174T cell proliferation at 500 nM, compared among ISQs (FIG. 2B) (500 nM): comparable to the N,N-dimethylamino group in ISQ-1
inhibition at 0.062 µM (5 days): 20 ± 9%
inhibition at 0.125 µM (5 days): 59 ± 2.7%
inhibition at 0.25 µM (250 nM, 5 days): 97 ± 0.2%
inhibition at 0.5 µM (500 nM, 5 days): 98 ± 0.6%
IC50: ~100 nM

COCC1CCN(c2ccc3cc(-c4cn(C)c5ccccc45)c(N)nc3c2)CC1 [ISQ-9, 7-(4-(Methoxymethyl)piperidin-1-yl)-3-(1-methyl-1H-indol-3-yl)quinolin-2-amine]
percentage inhibition of LS174T cell proliferation at 500 nM, compared among ISQs (FIG. 2B) (500 nM): comparable to the N,N-dimethylamino group in ISQ-1
inhibition at 0.062 µM (5 days): 12 ± 1.9%
inhibition at 0.125 µM (5 days): 55 ± 2.3%
inhibition at 0.25 µM (250 nM, 5 days): 98%
inhibition at 0.5 µM (500 nM, 5 days): 99 ± 0.1%
IC50: ~100 nM

Cn1cc(-c2cc3ccc(N4CCC(c5ccncc5)CC4)cc3nc2N)c2ccccc21 [ISQ-10, 3-(1-Methyl-1H-indol-3-yl)-7-(4-(pyridin-4-yl)piperidin-1-yl)quinolin-2-amine]
percentage inhibition of LS174T cell proliferation at 500 nM, compared among ISQs (FIG. 2B) (500 nM): comparable to the N,N-dimethylamino group in ISQ-1
inhibition at 0.062 µM (5 days): 21 ± 5.7%
inhibition at 0.125 µM (5 days): 84 ± 2.7%
inhibition at 0.25 µM (250 nM, 5 days): 99 ± 13.1%
inhibition at 0.5 µM (500 nM, 5 days): 99 ± 0.1%
IC50: ~100 nM

CN(C)c1ccc2cc(-c3nc4ccc(F)cc4s3)c(N)nc2c1 [LMK-5-52]
inhibition at 3 µM: 97%

CN(C)c1ccc2cc(-c3nc4ccc(Cl)cc4s3)c(N)nc2c1 [LMK-5-55]
inhibition at 3 µM: 97.6%

CN(C)c1ccc2cc(-c3nc4cc(C(C)(C)C)ccc4o3)c(N)nc2c1 [LMK-5-60]
inhibition at 3 µM: 91.5%

COc1ccc2nc(-c3cc4ccc(N(C)C)cc4nc3N)sc2c1 [LMK-5-62]
inhibition at 3 µM: 85.5%

CN(C)c1ccc2cc(-c3nc(-c4ccc(Br)cc4)cs3)c(N)nc2c1 [LMK-5-66]
inhibition at 1 µM: 45%
inhibition at 3 µM: 98.9%

CN(C)c1ccc2cc(-c3nc(-c4ccccc4)cs3)c(N)nc2c1 [LMK-5-67]
inhibition at 1 µM: 96.9%
inhibition at 3 µM: 99.8%

COc1ccc(-c2csc(-c3cc4ccc(N(C)C)cc4nc3N)n2)cc1 [LMK-5-68]
inhibition at 1 µM: 24.2%
inhibition at 3 µM: 94.3%

Nc1nc2cc(N3CCOCC3)ccc2cc1-c1cc(Cl)cc(Cl)c1 [LMK-5-276]
inhibition at 1 µM: 35%
inhibition at 3 µM: 65.2%

CN1CCN(c2ccc3cc(-c4cc(Cl)cc(Cl)c4)c(N)nc3c2)CC1 [LMK-5-278]
inhibition at 1 µM: 27.9%
inhibition at 3 µM: 87.7%

Nc1nc2cc(N3CCCCC3)ccc2cc1-c1cc(Cl)cc(Cl)c1 [LMK-5-279]
inhibition at 1 µM: 46.6%
inhibition at 3 µM: 87.6%

Nc1nc2cc(N3CCCC3)ccc2cc1-c1cc(Cl)cc(Cl)c1 [LMK-5-280]
inhibition at 0.3 µM: 31%
inhibition at 1 µM: 93.1%
inhibition at 3 µM: 97.7%

Cn1cc(-c2cc3ccc(N4CCOCC4)cc3nc2N)c2ccccc21 [LMK-5-281]
inhibition at 0.3 µM: 30.9%
inhibition at 1 µM: 93.7%
inhibition at 3 µM: 98.1%

CN1CCN(c2ccc3cc(-c4cn(C)c5ccccc45)c(N)nc3c2)CC1 [LMK-5-282]
inhibition at 1 µM: 25.2%
inhibition at 3 µM: 83.7%

Nc1nc2cc(N3CCOCC3)ccc2cc1-c1ccccc1F [LMK-5-284]
inhibition at 1 µM: 20.6%
inhibition at 3 µM: 85.6%

Nc1nc2cc(N3CCCCC3)ccc2cc1-c1ccccc1F [LMK-5-286]
inhibition at 0.3 µM: 21.9%
inhibition at 1 µM: 96%
inhibition at 3 µM: 97%

CC(C)C1CCN(c2ccc3cc(-c4ccccc4F)c(N)nc3c2)CC1 [LMK-6-84]
inhibition at 0.5 µM (500 nM, 5 days): 79 ± 5.7%

Nc1nc2cc(N3CCC(c4ccccc4)CC3)ccc2cc1-c1ccccc1F [LMK-6-89]
inhibition at 0.062 µM (5 days): 2 ± 3%
inhibition at 0.125 µM (5 days): 20 ± 0.6%
inhibition at 0.25 µM (250 nM, 5 days): 23 ± 3.8%
inhibition at 0.5 µM (500 nM, 5 days): 89 ± 1%

Nc1nc2cc(N3CCC(Cc4ccccc4)CC3)ccc2cc1-c1ccccc1F [LMK-6-91]
inhibition at 0.5 µM (500 nM, 5 days): 14 ± 1.2%

N#CC1CCN(c2ccc3cc(-c4ccccc4F)c(N)nc3c2)CC1 [LMK-6-99]
inhibition at 0.062 µM (5 days): 2 ± 0.2%
inhibition at 0.125 µM (5 days): 9 ± 2.2%
inhibition at 0.25 µM (250 nM, 5 days): 17 ± 0.1%
inhibition at 0.5 µM (500 nM, 5 days): 64 ± 3.5%

COCC1CCN(c2ccc3cc(-c4ccccc4F)c(N)nc3c2)CC1 [LMK-6-109]
inhibition at 0.062 µM (5 days): 16 ± 8.4%
inhibition at 0.125 µM (5 days): 29 ± 0.3%
inhibition at 0.25 µM (250 nM, 5 days): 70 ± 8.8%
inhibition at 0.5 µM (500 nM, 5 days): 94 ± 0.1%

Nc1nc2cc(N3CCC(CO)CC3)ccc2cc1-c1ccccc1F [LMK-6-117]
inhibition at 0.062 µM (5 days): 12 ± 1.4%
inhibition at 0.125 µM (5 days): 12 ± 0.7%
inhibition at 0.25 µM (250 nM, 5 days): 32 ± 10.5%
inhibition at 0.5 µM (500 nM, 5 days): 59 ± 0.3%

CN(C)c1ccc2cc(-c3ccc(Cl)c(Cl)c3)c(N)nc2c1 [VMS-4-57]
inhibition at 0.3 µM: 26.7%
inhibition at 1 µM: 57.8%
inhibition at 3 µM: 74.3%

CN(C)c1ccc2cc(-c3cc(Cl)cc(Cl)c3)c(N)nc2c1 [VMS-4-103]
inhibition at 3 µM: 86.4%

CN(C)c1ccc2cc(-c3nc4ccccc4s3)c(N)nc2c1 [VMS-7-1]
inhibition at 3 µM: 95.3%

CN(C)c1ccc2cc(-c3csc4ccccc34)c(N)nc2c1 [VMS-7-3]
inhibition at 3 µM: 96.7%

CN(C)c1ccc2cc(-c3coc4ccccc34)c(N)nc2c1 [VMS-7-7]
inhibition at 0.3 µM: 87.2%
inhibition at 1 µM: 97.8%
inhibition at 3 µM: 96.8%

COc1ccc2c(c1)c(-c1cc3ccc(N(C)C)cc3nc1N)cn2C [VMS-7-29]
inhibition at 3 µM: 99.3%

CNc1ccc2cc(-c3cc(Cl)cc(Cl)c3)c(N)nc2c1 [VMS-8-65]
inhibition at 3 µM: 97.2%

CNc1ccc2cc(-c3cn(C)c4ccccc34)c(N)nc2c1 [VMS-8-67]
inhibition at 3 µM: 96.9%

From patent US12630532B2, “Indole-substituted quinolines and their combination with Plk1 inhibitors for the treatment of cancer” (UNIVERSITY OF KENTUCKY RESEARCH FOUNDATION, priority 2021, dated 2026)
